According to patent publication US8361780B2, “Biological system and assay for identifying modulators of tubulin ligases” (University of Georgia Research Foundation, Inc., priority 2005, dated 2013):

Key:
Tetrahymena = details: cited from earlier work
[1] = tested on: cytoplasmic microtubules of wild-type Tetrahymena cells; test: Stability of cell body microtubules against microtubule-destabilizing compounds, wild-type cells; type: cell-based, Tetrahymena thermophila; details: nocodazole 40 μM, oryzalin 10 μM, 30 min
Procedure: (§1) Immunofluorescence and electron microscopy. GFP-Ttll6Ap-expressing cells were grown in SPP with 0.5 to 2.5 μg of CdCl2/ml for 2 to 4 h. For GFP-Ttll6Ap localization, a 10-μl drop of cells was placed on a coverslip, followed by the addition of 20 μl of 2% paraformaldehyde in PHEM buffer (Schliwa and van Blerkom. 1981. J. Cell Biol. 90:222-235) and, after 20 s, the addition of 10 μl of 0.5% Triton X-100 in PHEM. The cells were subjected to immunofluorescence (Janke et al., 2005. Science 308:1758-1762) with the following primary antibodies: 12G10, an anti-α-tubulin monoclonal antibody (MAb) (Jerka-Dziadosz et al., 1995. Dev. Biol. 169:644-661) at 1:50; MAb ID5 (40), which in Tetrahymena is specific to polyglutamylated tubulin (Wloga et al., 2008. Eukaryot. Cell 7:1362-1372), at 1:50; poly(E) antipolyglutamic acid antibodies (1:100) (Shang et al., 2002. J. Cell Biol. 158:1195-1206); TAP952, an anti-monoglycylated tubulin MAb (1:5,000) (Bré et al., 1998. Mol. Biol. Cell 9:2655-2665; Callen et al., 1994. Biol. Cell 81:95-119); and 6-11 B-1, an anti-acetyl-K40 α-tubulin MAb (1:200) (LeDizet and Piperno. 1991.

[2] = tested on: cell body microtubules of GFP-Ttll6Ap-overexpressing Tetrahymena cells; test: Stability of cell body microtubules against microtubule-destabilizing compounds, GFP-Ttll6Ap-overexpressing cells; type: cell-based, Tetrahymena thermophila; details: nocodazole 40 μM, oryzalin 10 μM, 30 min
Procedure: as §1

[3] = tested on: wild-type Tetrahymena cells; test: Axoneme/cilium length in paclitaxel-treated wild-type cells (immunofluorescence); type: cell-based, Tetrahymena thermophila
Procedure: as §1, with “1991. Methods Enzymol. 196:264-274). The secondary goat antibodies were as follows: anti-mouse-FITC, anti-mouse-Cy3, anti-rabbit-Cy3, and anti-rabbit-Cy5 (Zymed) at 1:200 dilutions. Cells were viewed under either Leica TCS SP or Zeiss LSM 510 VIS/META confocal microscopes. […] Confocal images were recorded with a 0.8-μm distance between z-sections, and sets of two to four z-sections were merged. The lengths of the cilia were measured by using ImageJ 1.37. […]” for “1991.”
(§2) Immunofluorescence and Electron Microscopy of Tetrahymena. Immuno-fluorescence was done as previously described (Wloga et al., 2006. Mol. Biol. Cell 17, 2799-2810) and quantified using mixed mutant and WT cells (fed with India ink) imaged side by side. The average pixel intensity was determined for sections of axonemes from the base to below the tip using ImageJ. […] After washing, cells were dehydrated in an ethanol series, embedded in Epon, sectioned, and analyzed in a JEM 1210 electron microscope.

[4] = tested on: GFP-Ttll6Ap-overproducing Tetrahymena cells; test: Cilium length in paclitaxel-treated GFP-Ttll6Ap-overproducing cells (immunofluorescence); type: cell-based, Tetrahymena thermophila; details: 40 μM paclitaxel for 3 h
Procedure: as §1, with “1991. Methods Enzymol. 196:264-274). The secondary goat antibodies were as follows: anti-mouse-FITC, anti-mouse-Cy3, anti-rabbit-Cy3, and anti-rabbit-Cy5 (Zymed) at 1:200 dilutions. Cells were viewed under either Leica TCS SP or Zeiss LSM 510 VIS/META confocal microscopes. To measure the length of the cilia, the cells were labeled with MAb 12G10, [and, in some experiments, double labeled with poly(E) antibodies]. Confocal images were recorded with a 0.8-μm distance between z-sections, and sets of two to four z-sections were merged. The lengths of the cilia were measured by using ImageJ 1.37. For transmission electron microscopy (TEM), the cells were prepared as described previously (Jerka-Dziadosz et al., 2001. Protist 152:53-67).” for “1991.”

3AB-KO Tetrahymena cells = test: Axoneme elongation by paclitaxel in 3AB-KO cells (immunofluorescence); type: cell-based, Tetrahymena thermophila; details: 25 μM paclitaxel for 4 hr
Procedure: Cultures. Tetrahymena thermophila cells were grown in SPP medium. To determine the growth rate, cells were diluted to 10^4 cells/ml and grown in 10 ml of SPP in 150 ml flasks. In some experiments, paclitaxel (LC Laboratories, Woburn, Mass.) was added to the SPP medium. WT in Kalkutta and Tupfel longfin (commonly known as “WIK” and “TL”, respectively) zebrafish were raised at 28° C. at 14 hr light/10 hr dark cycle. The embryos were cultured in egg water at 28° C.
as §2, with “ImageJ. TEM was performed as previously described (Jerka-Dziadosz et al., 2001. Protist 152, 53-67). For immunoelectron TEM, cells were fixed as for immunofluorescence, reacted with anti-GFP antibodies (1:1000; Abcam) in 3% bovine serum albumin (BSA) in the PHEM buffer with 0.1% Tween-20 for 2 hr, followed by anti-rabbit IgG-10 nm gold antibodies (GE Healthcare) at 1:60 in 3% BSA in PBS for 1.5 hr.” for “ImageJ.”

zebrafish embryos [5] = test: Tubulin monoglycylation in cilia of zebrafish embryos (TAP952 immunofluorescence); type: in vivo
From the text: (§3) MO Knockdowns in Zebrafish Embryos. TTLL3-ATG MO (5′ […] 3′; SEQ ID NO:129) and TTLL3-SP MO (5′ […] 3; SEQ ID NO:130) were obtained from Open Biosystems (Huntsville, AL). TTLL3-ATG targets the translation initiation site of ttll3 mRNA. TTLL3-SP is predicted to prevent splicing of exon 11 and cause a frame shift in exon 12. This would eliminate the coding sequence downstream of exon 10, which includes a conserved catalytic domain-encoding region. To evaluate the effect of TTLL3-SP on ttll3 mRNA, total RNA was isolated with TRIzol reagent (Invitrogen, Inc., Carlsbad, Calif.) from embryos at 7 hpf: 50 uninjected control embryos, 40 embryos injected with 3 ng TTLL3-SP MO, or 30 embryos injected with 5 ng TTLL3-SP MO. Total RNA ([…]) was used as a template for cDNA synthesis with random hexamers and oligo-dT primers and the iScript TM cDNA synthesis kit (Bio-Rad Laboratories, Hercules, Calif.). cDNA ([…]) was amplified with the following primers spanning exon 11: TTLL3-splice F, 5′-[…]-3′ (exon 10; SEQ ID NO:131); TTLL3-splice R, 5′-[…]-3′ (exon 12; SEQ ID NO:132). As expected, primers flanking exon 11 produced a shorter product in RT-PCR from embryos injected with TTLL3-SP than in controls (FIG. 50D). […] As a negative control, we injected 25 base MOs with a random base mixture at each position (Gene Tools, Inc., Philomath, Oreg.).
(§4) Microscopy of Zebrafish. For whole-mount, in situ hybridization, embryos were fixed as previously described (Hagos and Dougan, 2007), stored in 100% methanol at −20° C., and stained with spaw, lefty1, lefty2, and cmlc2 probes (Yelon, 2001). Embryos were photographed under differential interference contrast with a Zeiss Axioplan 2 microscope with Slidebook (Intelligent Imaging Innovations, Denver, Colo.). For immunofluorescence, the embryos were manually dechorionated and fixed with 0.5% Triton X-100 and 4% paraformaldehyde in PBT (0.1% Tween-20 in PBS) at 4° C. overnight. After washing with PBT, embryos were dehydrated in methanol/PBT series and incubated overnight in 100% methanol at −20° C. After rehydration, embryos were blocked for 1-2 hr in 2% BSA, 0.5% normal goat serum,l%DMSO, 0.5% Triton X-100 in PBS, and incubated overnight at 4° C. with one of the following antibodies: 6-11 B-1 (1:1000); TAP952 (1:2000); AXO49 (1:2000); and GT335 (1:1000); polyE (1:500). After washing 3×10 min with 0.5% Triton X-100 in PBS, embryos were incubated overnight at 4° C. in anti-mouse-IgG-FITC or anti-rabbit-IgG-Cy3 (1:500; Zymed), washed (3×10 min), mounted in 100 mg/ml of DABCO (Sigma-Aldrich) in PBS, and examined on a Leica TCS SP confocal microscope.

zebrafish embryos [6] = test: Morphology of zebrafish morphant embryos; details: in vivo
From the text: as §3

zebrafish embryos [7] = test: Heart position in zebrafish embryos, scoring live embryos; type: in vivo
From the text: as §3

zebrafish embryos [8] = test: Heart position in zebrafish embryos, in situ hybridization; type: in vivo
From the text: as §3, §4

zebrafish embryos [9] = test: Expression pattern of lefty2 in zebrafish embryos (in situ hybridization); type: in vivo
From the text: as §3, §4

zebrafish embryos [10] = test: Expression pattern of southpaw in zebrafish embryos (in situ hybridization); type: in vivo
From the text: as §3, §4

[11] = GFP-Ttll6Ap-overexpressing cells

## C[S+](C)[O-] [DMSO]
Tetrahymena
  concentration tolerated well: up to 2.5%

## COC(=O)Nc1nc2ccc(C(=O)c3cccs3)cc2[nH]1 [nocodazole]
[1]
  effect on cytoplasmic microtubules: rapid depolymerization of cytoplasmic microtubules
[2]
  effect on cell body microtubules: retained abundant cell body microtubules

## CC(=O)O[C@H]1C(=O)[C@@]2(C)[C@H]([C@H](OC(=O)c3ccccc3)[C@]3(O)C[C@H](OC(=O)[C@H](O)[C@@H](NC(=O)c4ccccc4)c4ccccc4)C(C)=C1C3(C)C)[C@]1(OC(C)=O)CO[C@@H]1C[C@@H]2O [paclitaxel]
[3]; 25 μM paclitaxel for 4 hr
  effect on axonemes: remarkable elongation of axonemes
[3]; 40 μM paclitaxel for 3 h
  increase of the average axoneme length: 20%
[3]; 40 μM paclitaxel for 3 h, n=173
  axoneme length after treatment: 6.05±1.12 μm
[4]; [11]
  elongation of preexisting cilia: 22%
  length of preexisting cilia, paclitaxel treated: 6.39±0.82 μm
[4]; GFP-Ttll6Ap-overproducing cells
  length of assembling cilia, paclitaxel treated: 2.7±0.6 μm
[4]; GFP-Ttll6Ap-overproducing cells, vs no drug
  change of length of assembling cilia: 44%
3AB-KO Tetrahymena cells
  elongation of axonemes: not observed

## TTLL3-ATG-MO: antisense morpholino 5′ GTGTTGGTGCATGTTTGAGTTAACC 3′; targets the translation initiation site of ttll3 mRNA (all phosphorodiamidate morpholino (PMO))
Zebrafish embryos [5]; 72 hpf, TTLL3-ATG MO 1 ng, TTLL3-SP MO 3 ng
  levels of tubulin monoglycylation/glycylation in cilia: greatly reduced
Zebrafish embryos [5]; n=46
  morphants with TAP952 signal not detected in cilia of the distal part of pronephric duct: 98%
  morphants with TAP952 signal not detected in cilia of the medial part of pronephric duct: 61%
  morphants with TAP952 signal not detected in cilia of the spinal cord: 89%
Zebrafish embryos [6]
  hydrocephalic morphants: 10%
  morphant embryos with curly tail: 76%
Zebrafish embryos [7]
  heart position left, number of embryos: 56
  heart position left, percent of embryos: 50%
  heart position middle, number of embryos: 33
  heart position middle, percent of embryos: 29.5%
  heart position right, number of embryos: 23
  heart position right, percent of embryos: (20.5%)
Zebrafish embryos [8]
  heart position left, number of embryos: 21
  heart position left, percent of embryos: 50%
  heart position middle, number of embryos: 7
  heart position middle, percent of embryos: 16.7%
  heart position right, number of embryos: 14
  heart position right, percent of embryos: (33.3%)
Zebrafish embryos [9]
  lefty2 expression: Bilatera or midline, number of embryos: 5
  lefty2 expression: Bilatera or midline, percent of embryos: (11.9%)
  lefty2 expression: No specific signal, number of embryos: 8
  lefty2 expression: No specific signal, percent of embryos: (19%)
  lefty2 expression: left, number of embryos: 15
  lefty2 expression: left, percent of embryos: (35.7%)
  lefty2 expression: right, number of embryos: 14
  lefty2 expression: right, percent of embryos: (33.4%)
Zebrafish embryos [10]
  southpaw expression: Bilatera or midline, number of embryos: 34
  southpaw expression: Bilatera or midline, percent of embryos: (43.7%)
  southpaw expression: No specific signal, number of embryos: 19
  southpaw expression: No specific signal, percent of embryos: (24.3%)
  southpaw expression: left, number of embryos: 14
  southpaw expression: left, percent of embryos: (17.9%)
  southpaw expression: right, number of embryos: 11
  southpaw expression: right, percent of embryos: (14.1%)
